The text below walks through data of patent publication US20180250280A1 (BAYER PHARMA AKTIENGESELLSCHAFT, priority 2015, published 2018).

For assay [1], the target named is T1, human factor XIa (Homo sapiens, UniProt P03951).
T1 construct: purchased Kordia
The experiment in a line: Measurement of FXIa inhibition (fluorogenic peptide substrate, AMC cleavage). The assay is classed as biochemical. The conditions noted are these: factor XIa from Kordia 0.45 nM; substrate Boc-Glu(OBzl)-Ala-Arg-AMC 10 μM; 30 min at 22° C.; in some cases averages from multiple determinations.

Assay [2] has as its target T2, human plasma kallikrein (Homo sapiens, UniProt P03952).
T2 construct: purchased Kordia
Briefly: Determination of the plasma kallikrein activity (fluorogenic peptide substrate, AMC cleavage). The conditions noted are these: plasma kallikrein from Kordia 0.6 nM; substrate H-Pro-Phe-Arg-AMC 10 μM; 30 min at 22° C.; in some cases averages from multiple determinations. The class given is biochemical. The essentials:
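Kallikrein cleavage of H-Pro-Phe-Arg-AMC was followed by AMC fluorescence (ex 360, em 460) after 15 min enzyme–compound preincubation. IC50 was derived versus DMSO controls over final concentrations of 50 μM to 0.00013 μM.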

T2 sequence (P03952 391-638 limits assumed): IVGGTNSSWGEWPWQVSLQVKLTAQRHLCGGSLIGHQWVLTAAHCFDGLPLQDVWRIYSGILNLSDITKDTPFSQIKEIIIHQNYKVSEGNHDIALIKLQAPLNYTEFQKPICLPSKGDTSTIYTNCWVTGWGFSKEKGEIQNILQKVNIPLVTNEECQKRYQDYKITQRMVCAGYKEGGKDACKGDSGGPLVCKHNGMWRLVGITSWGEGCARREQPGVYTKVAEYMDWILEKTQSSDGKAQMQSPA
T2 sequence (P03952 20-390 partner limits assumed): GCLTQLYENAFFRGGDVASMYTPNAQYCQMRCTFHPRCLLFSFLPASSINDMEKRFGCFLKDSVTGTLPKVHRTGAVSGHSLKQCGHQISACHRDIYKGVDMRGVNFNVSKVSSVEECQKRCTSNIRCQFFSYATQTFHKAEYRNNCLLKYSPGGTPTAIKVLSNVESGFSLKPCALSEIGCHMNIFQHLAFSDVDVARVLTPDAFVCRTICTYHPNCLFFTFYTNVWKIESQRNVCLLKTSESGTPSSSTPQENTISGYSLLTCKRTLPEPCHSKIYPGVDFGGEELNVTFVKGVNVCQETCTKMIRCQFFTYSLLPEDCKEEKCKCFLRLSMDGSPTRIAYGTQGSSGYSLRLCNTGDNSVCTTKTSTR
T1 sequence (P03951 388-625 limits assumed): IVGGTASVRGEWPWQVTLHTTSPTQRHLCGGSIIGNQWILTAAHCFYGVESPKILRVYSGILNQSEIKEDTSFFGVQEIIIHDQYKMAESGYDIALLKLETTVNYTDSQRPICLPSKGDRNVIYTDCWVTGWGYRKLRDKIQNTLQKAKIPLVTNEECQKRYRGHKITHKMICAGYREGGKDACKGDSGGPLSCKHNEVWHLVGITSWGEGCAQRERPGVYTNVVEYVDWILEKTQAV
T1 sequence (P03951 19-387 partner limits assumed): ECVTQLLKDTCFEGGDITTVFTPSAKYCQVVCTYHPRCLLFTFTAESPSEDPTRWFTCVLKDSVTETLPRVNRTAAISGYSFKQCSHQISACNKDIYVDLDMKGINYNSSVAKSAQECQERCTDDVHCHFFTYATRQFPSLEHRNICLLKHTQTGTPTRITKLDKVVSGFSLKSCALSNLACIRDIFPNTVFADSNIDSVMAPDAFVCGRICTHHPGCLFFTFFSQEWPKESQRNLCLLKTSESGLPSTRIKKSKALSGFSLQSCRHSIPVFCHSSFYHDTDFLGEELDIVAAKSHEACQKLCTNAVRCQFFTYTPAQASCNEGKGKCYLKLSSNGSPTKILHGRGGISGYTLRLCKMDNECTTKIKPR

By IC50 is commonly meant the concentration that gives 50% inhibition. Turning to `CNC(=O)c1ccc(NC(=O)C(CC2COCCO2)n2cc(OC)c(-c3cc(Cl)ccc3OCC(F)(F)F)cc2=O)cn1` (single isomer, unassigned) [Example 63, 5-{[2-{4-[5-Chloro-2-(2,2,2-trifluoroethoxy)phenyl]-5-methoxy-2-oxopyridin-1(2H)-yl}-3-(1,4-dioxan-2-yl)propanoyl]amino}-N-methylpyridine-2-carboxamide], the figures for the IC50 in assay [1] and in assay [2] were 1.3 nM and 14 nM, respectively.
